Measured values published in publication PMC6914780 (2019).

Assays:
[1] = system: SAM-VI U6C (RNA, riboswitch) GGCAUCGUGCCUCGCAUUGCACUCCGCGGGGCGAUAAGUCCUGAAAAGGGAUGUC; experiment: ITC; conditions: K+ 50 mM, Mg2+ 10 mM; 40 mM HEPES pH 7.0, 20 °C
[2] = system: SAM-VI A37C (RNA, riboswitch) GGCAUUGUGCCUCGCAUUGCACUCCGCGGGGCGAUACGUCCUGAAAAGGGAUGUC; experiment: ITC; conditions: K+ 50 mM, Mg2+ 10 mM; 40 mM HEPES pH 7.0, 20 °C; N.D.; 0.5-1 mM ligand in syringe
[3] = system: SAM-VI A36C (RNA, riboswitch) GGCAUUGUGCCUCGCAUUGCACUCCGCGGGGCGAUCAGUCCUGAAAAGGGAUGUC; experiment: ITC; conditions: K+ 50 mM, Mg2+ 10 mM; 40 mM HEPES pH 7.0, 20 °C; N.D.; 0.5-1 mM ligand in syringe
[4] = system: SAM-VI WT (B. angulatum 59 metK, U1A loop, crystallization/ITC construct) (RNA, riboswitch) GGCAUUGUGCCUCGCAUUGCACUCCGCGGGGCGAUAAGUCCUGAAAAGGGAUGUC; experiment: ITC; conditions: K+ 50 mM, Mg2+ 10 mM; 40 mM HEPES pH 7.0, 20 °C
[5] = system: SAM-VI U8A (RNA, riboswitch) GGCAUUGAGCCUCGCAUUGCACUCCGCGGGGCGAUAAGUCCUGAAAAGGGAUGUC; experiment: ITC; conditions: K+ 50 mM, Mg2+ 10 mM; 40 mM HEPES pH 7.0, 20 °C; N.D.; 0.5-1 mM ligand in syringe
[6] = system: SAM-VI U8C (RNA, riboswitch) GGCAUUGCGCCUCGCAUUGCACUCCGCGGGGCGAUAAGUCCUGAAAAGGGAUGUC; experiment: ITC; conditions: K+ 50 mM, Mg2+ 10 mM; 40 mM HEPES pH 7.0, 20 °C; N.D.; 0.5-1 mM ligand in syringe
[7] = system: wt U39Ap SAM-VI (GAAA tetraloop) (RNA, riboswitch, 2-aminopurine at U39 (paper numbering)) GGCAUUGUGCCUCGAAAGGGGCGAUAAGUCCUGAAAAGGGAUGUC; experiment: stopped-flow 2-aminopurine fluorescence; conditions: K+ 100 mM, Mg2+ 2 mM; 50 mM KMOPS pH 7.5, 20 °C; association rate constant
[8] = system: metK 61 (U39Ap) (RNA, riboswitch, 2-aminopurine at U39 (paper numbering)) GCAAACGAAAACGUAUCAUUGUGCCUCGCUGGGGAGCGGGGCGAUAAGUCCGAAAGAGGGA; experiment: 2-aminopurine fluorescence; conditions: K+ 100 mM, Mg2+ 2 mM; 50 mM KMOPS pH 7.5, 20 °C; 0.5 µM RNA, 15 µM SAM; no fluorescence change
[9] = system: SAM-VI G38C (RNA, riboswitch) GGCAUUGUGCCUCGCAUUGCACUCCGCGGGGCGAUAACUCCUGAAAAGGGAUGUC; experiment: ITC; conditions: K+ 50 mM, Mg2+ 10 mM; 40 mM HEPES pH 7.0, 20 °C; N.D.; 0.5-1 mM ligand in syringe
[10] = system: SAM-VI A36G/A37G/G38A (RNA, riboswitch) GGCAUUGUGCCUCGCAUUGCACUCCGCGGGGCGAUGGAUCCUGAAAAGGGAUGUC; experiment: ITC; conditions: K+ 50 mM, Mg2+ 10 mM; 40 mM HEPES pH 7.0, 20 °C; N.D.; 0.5-1 mM ligand in syringe
[11] = system: SAM-VI A34G (RNA, riboswitch) GGCAUUGUGCCUCGCAUUGCACUCCGCGGGGCGGUAAGUCCUGAAAAGGGAUGUC; experiment: ITC; conditions: K+ 50 mM, Mg2+ 10 mM; 40 mM HEPES pH 7.0, 20 °C; N.D.; 0.5-1 mM ligand in syringe
[12] = system: SAM-VI U8G (RNA, riboswitch) GGCAUUGGGCCUCGCAUUGCACUCCGCGGGGCGAUAAGUCCUGAAAAGGGAUGUC; experiment: ITC; conditions: K+ 50 mM, Mg2+ 10 mM; 40 mM HEPES pH 7.0, 20 °C; N.D.; 0.5-1 mM ligand in syringe
[13] = system: U6C U39Ap SAM-VI (RNA, riboswitch, 2-aminopurine at U39 (paper numbering)) GGCAUCGUGCCUCGAAAGGGGCGAUAAGUCCUGAAAAGGGAUGUC; experiment: 2-aminopurine fluorescence titration; conditions: K+ 100 mM, Mg2+ 2 mM; 50 mM KMOPS pH 7.5, 20 °C; apparent
[14] = system: metK 65 (U39Ap) (RNA, riboswitch, 2-aminopurine at U39 (paper numbering)) GCAAACGAAAACGUAUCAUUGUGCCUCGCUGGGGAGCGGGGCGAUAAGUCCGAAAGAGGGAUGAU; experiment: 2-aminopurine fluorescence; conditions: K+ 100 mM, Mg2+ 2 mM; 50 mM KMOPS pH 7.5, 20 °C; 0.5 µM RNA, 15 µM SAM; >3-fold fluorescence increase
[15] = system: SAM-VI G7C (RNA, riboswitch) GGCAUUCUGCCUCGCAUUGCACUCCGCGGGGCGAUAAGUCCUGAAAAGGGAUGUC; experiment: ITC; conditions: K+ 50 mM, Mg2+ 10 mM; 40 mM HEPES pH 7.0, 20 °C; N.D.; 0.5-1 mM ligand in syringe
[16] = system: SAM-VI A34C (RNA, riboswitch) GGCAUUGUGCCUCGCAUUGCACUCCGCGGGGCGCUAAGUCCUGAAAAGGGAUGUC; experiment: ITC; conditions: K+ 50 mM, Mg2+ 10 mM; 40 mM HEPES pH 7.0, 20 °C; N.D.; 0.5-1 mM ligand in syringe
[17] = system: wt U39Ap SAM-VI (GAAA tetraloop) (RNA, riboswitch, 2-aminopurine at U39 (paper numbering)) GGCAUUGUGCCUCGAAAGGGGCGAUAAGUCCUGAAAAGGGAUGUC; experiment: 2-aminopurine fluorescence titration; conditions: K+ 100 mM, Mg2+ 2 mM; 50 mM KMOPS pH 7.5, 20 °C; apparent
[18] = system: U6C U39Ap SAM-VI (RNA, riboswitch, 2-aminopurine at U39 (paper numbering)) GGCAUCGUGCCUCGAAAGGGGCGAUAAGUCCUGAAAAGGGAUGUC; experiment: stopped-flow 2-aminopurine fluorescence; conditions: K+ 100 mM, Mg2+ 2 mM; 50 mM KMOPS pH 7.5, 20 °C; association rate constant
[19] = system: SAM-VI G33A (RNA, riboswitch) GGCAUUGUGCCUCGCAUUGCACUCCGCGGGGCAAUAAGUCCUGAAAAGGGAUGUC; experiment: ITC; conditions: K+ 50 mM, Mg2+ 10 mM; 40 mM HEPES pH 7.0, 20 °C; N.D.; 0.5-1 mM ligand in syringe

For `C[S+](CC[C@H](N)C(=O)O)C[C@H]1O[C@@H](n2cnc3c(N)ncnc32)[C@H](O)[C@@H]1O` (stereo partly drawn), the Kd [1] was 0.46 ± 0.02 µM, the binding [2] was “no” and the binding [3] was “no”. The Kd [4] was 0.33 ± 0.06 µM, the binding [5] was “no” and the binding [6] was “no”. For the same compound, the kon [7] was 24,580 ± 689 M^-1 s^-1, the binding [8] was “no” and the binding [9] was “no”. For the same compound, the binding [10] was “no”, the binding [11] was “no” and the binding [12] was “no”. For the same compound, the Kd [13] was 2.31 ± 0.06 µM, the binding [14] was “yes” and the binding [15] was “no”. The binding [16] was “no”, the Kd [17] was 2.04 ± 0.11 µM and the kon [18] was 62,550 ± 1900 M^-1 s^-1. For the same compound, the binding [19] was “no”.

`Nc1ncnc2c1ncn2[C@@H]1O[C@H](CN(CCO)CC[C@H](N)C(=O)O)[C@@H](O)[C@H]1O` was tested, and the Kd [1] was 1.7 ± 0.3 µM, the Kd [4] was 4.4 ± 0.5 µM and the kon [7] was 17,240 ± 1140 M^-1 s^-1. It also gave a kon [18] of 4230 ± 462 M⁻¹ s⁻¹.

With `Nc1ncnc2c1ncn2[C@@H]1O[C@H](CSCC[C@H](N)C(=O)O)[C@@H](O)[C@H]1O` the Kd [1] was 2.3 ± 0.1 µM, the Kd [4] was 10.9 ± 1.3 µM and the kon [7] was 5500 ± 266 M⁻¹ s⁻¹. For the same compound, the kon [18] was 1460 ± 179 M⁻¹ s⁻¹.
